“And” between values parts separate entries of the source, which are not always exact repeats. Equal entries are not always repeated. Toxic doses and inconclusive results are not listed. The calls were made as follows: active = survival T/C of 150% or more; inactive = T/C below 125% in these data.
Test system: P388 leukemia ip, CD2F1 mice, survival T/C
Assay: NCI In Vivo Anticancer Drug Screen. Data for tumor model P388 Leukemia (intraperitoneal) in CD2F1 (CDF1) mice
Settings: endpoint: median survival time, higher = longer survival
Summary of the method: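 Mice carrying the transplanted tumor received test compound or vehicle. Survival was recorded in each group, and the value is the treated-group measurement divided by that of the vehicle-treated control group.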

[1] = dose: 60.0 mg/kg/injection, schedule: Q01DX005 (ip), vehicle: saline with Tween-80
[2] = dose: 120.0 mg/kg/injection, schedule: Q01DX005 (ip), vehicle: saline with Tween-80
[3] = dose: 50.0 mg/kg/injection, schedule: Q01DX009 (ip), vehicle: saline with Tween-80
[4] = dose: 100.0 mg/kg/injection, schedule: Q01DX009 (ip), vehicle: saline with Tween-80
[5] = dose: 50.0 mg/kg/injection, schedule: Q01DX009 (ip), vehicle: Klucel (hydroxypropylcellulose) (HPC)
[6] = dose: 100.0 mg/kg/injection, schedule: Q01DX009 (ip), vehicle: Klucel (hydroxypropylcellulose) (HPC)
[7] = dose: 100.0 mg/kg/injection, schedule: Q01DX009 (ip), vehicle: suspension in saline
[8] = dose: 200.0 mg/kg/injection, schedule: Q01DX009 (ip), vehicle: Klucel (hydroxypropylcellulose) (HPC)
[9] = dose: 200.0 mg/kg/injection, schedule: Q01DX009 (ip), vehicle: suspension in saline
[10] = dose: 240.0 mg/kg/injection, schedule: Q01DX005 (ip), vehicle: saline with Tween-80
[11] = dose: 50.0 mg/kg/injection, schedule: Q01DX005 (ip), vehicle: saline with Tween-80
[12] = dose: 200.0 mg/kg/injection, schedule: Q01DX009 (ip), vehicle: saline with Tween-80

Measured: T/C

COC(=O)[C@@]12OC[C@]34[C@H]([C@@H](O)[C@@H]1O)[C@@]1(C)CC(=O)C(O)=C(C)[C@@H]1C[C@H]3OC(=O)[C@H](OC(=O)CC(C)C)[C@@H]24
inactive: dose: 0.12 mg/kg/injection, schedule: Q01DX009 (ip), vehicle: saline + alcohol 110 % of control | dose: 0.25 mg/kg/injection, schedule: Q01DX009 (ip), vehicle: saline + alcohol 118 % of control

Cc1nn(C)c(=O)c(N)c1-c1cc(-c2ccc(Cl)cc2)n[nH]1
inactive: [1] 89 % of control | [2] 88 % of control

CCOC(=O)c1ccccc1Nc1c(C(=O)OCC)cnc2cc3c(cc12)OCO3
inactive: dose: 60.0 mg/kg/injection, schedule: Q01DX005 (ip), vehicle: Klucel (hydroxypropylcellulose) (HPC) 106 % of control | dose: 120.0 mg/kg/injection, schedule: Q01DX005 (ip), vehicle: Klucel (hydroxypropylcellulose) (HPC) 98 % of control | dose: 240.0 mg/kg/injection, schedule: Q01DX005 (ip), vehicle: Klucel (hydroxypropylcellulose) (HPC) 97 % of control

N#CNC1=NC(c2ccccc2)CC=C1 (stereo unspecified)
inactive: [3] 102 % of control | [4] 113 % of control

c1ccc(-c2nc[nH]c2-c2ccccc2)cc1
inactive: [5] 96 % of control | [6] 97 % of control | [7] 101 % of control | [8] 98 % of control | [9] 96 % of control | dose: 400.0 mg/kg/injection, schedule: Q01DX009 (ip), vehicle: Klucel (hydroxypropylcellulose) (HPC) 97 % of control

COc1cc(O)ccc1/C=C/C(=O)c1ccc(OC2OC(CO)C(O)C(O)C2O)cc1 (stereo unspecified)
inactive: dose: 100.0 mg/kg/injection, schedule: Q04DX002 (ip), vehicle: saline with Tween-80 98 % of control | dose: 200.0 mg/kg/injection, schedule: Q04DX002 (ip), vehicle: saline with Tween-80 105 % of control | dose: 400.0 mg/kg/injection, schedule: Q04DX002 (ip), vehicle: saline with Tween-80 108 % of control

C=Cc1c(C)c2[nH]c1=CC1=NC(=CC3=NC(=CC4=C(C)/C(=C\NO)C(=N4)C=2)C(C)=C3CCC(=O)OC)C(CCC(=O)OC)=C1C
inactive: dose: 50.0 mg/kg/injection, schedule: Q01DX005 (ip), vehicle: Klucel (hydroxypropylcellulose) (HPC) 95 % of control | dose: 100.0 mg/kg/injection, schedule: Q01DX005 (ip), vehicle: Klucel (hydroxypropylcellulose) (HPC) 99 % of control | dose: 200.0 mg/kg/injection, schedule: Q01DX005 (ip), vehicle: Klucel (hydroxypropylcellulose) (HPC) 99 % of control

CCOC(=O)NNC(=O)Nc1ccccc1F
inactive: [1] 108 % of control | [2] 96 % of control | [10] 99 % of control

CC(C)NCC(N)C(=O)O (stereo unspecified)
inactive: dose: 55.0 mg/kg/injection, schedule: Q01DX001 (ip), vehicle: saline 102 % of control | dose: 110.0 mg/kg/injection, schedule: Q01DX001 (ip), vehicle: saline 102 % of control | dose: 220.0 mg/kg/injection, schedule: Q01DX001 (ip), vehicle: saline 99 % of control

CN(C)CCN1C(=O)c2c(c3cccn3c3c2cnn3-c2ccccc2)C1=O
inactive: [1] 100 % of control | [2] 102 % of control | [10] 100 % of control

[CH3][Pb]([CH3])([CH3])[Cl]
inactive: dose: 0.75 mg/kg/injection, schedule: Q01DX009 (ip), vehicle: saline 90 % of control and 92 % of control | dose: 1.5 mg/kg/injection, schedule: Q01DX009 (ip), vehicle: saline 90 % of control and 93 % of control and 97 % of control | dose: 3.0 mg/kg/injection, schedule: Q01DX009 (ip), vehicle: saline 94 % of control (2×) and 97 % of control | dose: 6.0 mg/kg/injection, schedule: Q01DX009 (ip), vehicle: saline 95 % of control

COc1ccc(C(N)=O)cc1N=NN(C)C
inactive: dose: 3.12 mg/kg/injection, schedule: Q01DX009 (ip), vehicle: Klucel (hydroxypropylcellulose) (HPC) 103 % of control | dose: 3.13 mg/kg/injection, schedule: Q01DX009 (ip), vehicle: Klucel (hydroxypropylcellulose) (HPC) 103 % of control | dose: 6.25 mg/kg/injection, schedule: Q01DX009 (ip), vehicle: Klucel (hydroxypropylcellulose) (HPC) 98 % of control | dose: 12.5 mg/kg/injection, schedule: Q01DX009 (ip), vehicle: Klucel (hydroxypropylcellulose) (HPC) 107 % of control and 114 % of control | dose: 25.0 mg/kg/injection, schedule: Q01DX009 (ip), vehicle: Klucel (hydroxypropylcellulose) (HPC) 121 % of control and 123 % of control | [5] 118 % of control and 94 % of control

CC(C)c1cc(C(=O)O)c(O)c(C(C)C)c1.CC(C)c1cc(C(=O)O)c(O)c(C(C)C)c1.[Cu]
inactive: dose: 12.5 mg/kg/injection, schedule: Q01DX005 (ip), vehicle: saline with Tween-80 96 % of control | dose: 25.0 mg/kg/injection, schedule: Q01DX005 (ip), vehicle: saline with Tween-80 90 % of control | [11] 98 % of control

O=[N+]([O-])c1cc2c(cc1S(=O)(=O)O)C1C(C3C2C2(Cl)C(Cl)=C(Cl)C3(Cl)C2(Cl)Cl)C2(Cl)C(Cl)=C(Cl)C1(Cl)C2(Cl)Cl (stereo unspecified)
inactive: dose: 50.0 mg/kg/injection, schedule: Q01DX009 (ip), vehicle: saline 101 % of control | dose: 100.0 mg/kg/injection, schedule: Q01DX009 (ip), vehicle: saline 98 % of control

BrCC(Br)=C(Br)Br
inactive: dose: 3.12 mg/kg/injection, schedule: Q01DX009 (ip), vehicle: saline with Tween-80 104 % of control | dose: 6.25 mg/kg/injection, schedule: Q01DX009 (ip), vehicle: saline with Tween-80 106 % of control | dose: 12.5 mg/kg/injection, schedule: Q01DX009 (ip), vehicle: saline with Tween-80 98 % of control

O=C1Oc2ccccc2OC1c1ccccc1 (stereo unspecified)
inactive: [5] 102 % of control | [6] 106 % of control | [8] 97 % of control

COC(=O)c1cc(-c2ccc3ccccc3c2)[nH]c(=O)c1C#N
inactive: dose: 30.0 mg/kg/injection, schedule: Q01DX005 (ip), vehicle: saline with Tween-80 100 % of control | [1] 91 % of control and 92 % of control | [2] 96 % of control

Cc1[nH]c2ccc(N(C)C)cc2c(=O)c1CN1CCN(C)CC1
inactive: [3] 111 % of control | [4] 111 % of control | [12] 110 % of control

O=c1[nH]c(=S)[nH]cc1-c1ccc(Cl)c(Cl)c1
inactive: dose: 50.0 mg/kg/injection, schedule: Q01DX009 (ip), vehicle: suspension in saline 105 % of control | [7] 104 % of control | [9] 106 % of control

CC1CC(N=Cc2ccc3c(c2)OCO3)CC(C)(C)C1 (stereo unspecified)
inactive: [11] 103 % of control | dose: 100.0 mg/kg/injection, schedule: Q01DX005 (ip), vehicle: saline with Tween-80 96 % of control | dose: 200.0 mg/kg/injection, schedule: Q01DX005 (ip), vehicle: saline with Tween-80 97 % of control

CC1(C)CC2(C)OC2C2(C1)N=NC(=Nc1ccccc1)O2 (stereo unspecified)
inactive: [3] 105 % of control and 92 % of control | [4] 120 % of control and 97 % of control | [12] 108 % of control

O=C1NN=CC1CCCN=Cc1cc(Br)ccc1O (stereo unspecified)
inactive: [3] 96 % of control | [4] 104 % of control | [12] 114 % of control

C=C(C)[C@H]1Cc2c(ccc3c2O[C@@H]2COc4cc(OC)c(OC)cc4[C@@H]2C3=O)O1
inactive: dose: 1.5 mg/kg/injection, schedule: Q01DX009 (ip), vehicle: saline with Tween-80 110 % of control | dose: 1.5 mg/kg/injection, schedule: Q04DX003 (ip), vehicle: saline with Tween-80 100 % of control | dose: 3.0 mg/kg/injection, schedule: Q01DX009 (ip), vehicle: saline with Tween-80 115 % of control | dose: 3.0 mg/kg/injection, schedule: Q04DX003 (ip), vehicle: saline with Tween-80 100 % of control | dose: 6.0 mg/kg/injection, schedule: Q01DX009 (ip), vehicle: saline with Tween-80 120 % of control | dose: 6.0 mg/kg/injection, schedule: Q04DX003 (ip), vehicle: saline with Tween-80 104 % of control | dose: 12.5 mg/kg/injection, schedule: Q01DX001 (ip), vehicle: saline with Tween-80 110 % of control | dose: 25.0 mg/kg/injection, schedule: Q01DX001 (ip), vehicle: saline with Tween-80 114 % of control | dose: 50.0 mg/kg/injection, schedule: Q01DX001 (ip), vehicle: saline with Tween-80 112 % of control

CCOC(=O)/C=C1/Nc2ccc([N+](=O)[O-])cc2NC1=O (tested in a mixture with another compound)
inactive: dose: 50.0 mg/kg/injection, schedule: Q01DX009 (ip), vehicle: distilled water + Tween-80 + alcohol 86 % of control | dose: 100.0 mg/kg/injection, schedule: Q01DX009 (ip), vehicle: distilled water + Tween-80 + alcohol 94 % of control | dose: 200.0 mg/kg/injection, schedule: Q01DX009 (ip), vehicle: distilled water + Tween-80 + alcohol 103 % of control
